Data reported in US7981939B2, “Application of 2-bromide-isovanillin for the manufacture of a medicament for anti-cancer or/and radiation/chemotherapy sensitization” (Institute of Radiation Medicine, Academy of Military …, priority 2005, dated 2011).

Key:
[1] = system: human liver cancer cell line HepG2; test: G2/M arrest and apoptosis by flow cytometry, HepG2; type: cell-based; settings: HepG2, 40 μmol/L
Method: By way of example, human liver cancer cell lines HepG2 and 7402, human ovarian cancer cell lines HOC8 and A2780, human glioma cell line BT325, lung cancer cell line A549, brain metastatic lung cancer cell line BT72 and prostate cancer cell line IB-4 were used to investigate the G2/M arresting of solid tumor cells of different tissue origins by 2-bromo-isovanillin as measured by the ratio of cells at G2/M phase. Specifically, the cancer cells were divided into two groups, and were treated with 0 or 40 μmol/L 2-bromo-isovanillin for 24 hours. Then the cells were harvested and analyzed for changes in cell cycle and cell apoptosis by flow cytometry.
2. In a separate experiment, the cell cycle profile and apoptosis rate of human liver cancer cell line HepG2 treated with 40 μmol/L 2-bromo-isovanillin for different periods of time (0-50 h) were studied, and the results are shown in FIGS. 7A and 7B (1, 2, 3, 4 respectively represent the apoptosis results for treatment with 40 μmol/L 2-bromo-isovanillin for 0, 8, 16, 24 hrs).

[2] = biological target: T1, nuclear protein DNA-PKcs serine/threonine protein kinase (Homo sapiens, UniProt P78527); test: DNA-PKcs kinase activity in nuclear protein of treated HepG2 cells; type: cell-based; settings: 24 hrs
T1 construct: adding nuclear proteins to the solid phase reaction system; endogenous in cells; host or cells: HepG2 human liver cancer cells (nuclear protein extract)
Method: The activity of nuclear protein DNA-PKcs serine/threonine protein kinase in human liver cancer cells HepG2 treated with 0, 10, 20, 40, 100 μmol/L 2-bromo-isovanillin for 24 hrs was determined by using […] DNA dependent protein kinase assay kit (Promega), according to the manufacturer's instructions, and the treatment with 100 μmol/L vanillin for the same period of time served as control. Basically, the assay was carried out by immobilizing the phosphorylation substrate specific to DNA-PKcs, i.e., a peptide derived from p53 protein onto a cellulose membrane, adding nuclear proteins to the solid phase reaction system, isotopically labeling the substrate by phosphorylation using γ-^32P ATP, removing non-specific signals after the isotope labeling, and visualizing the kinase activity upon X-ray film developing.

[3] = system: human cervical cancer cell line HeLa; test: Radiosensitizing activity with 2 Gy Co-60 γ radiation, HeLa, MTT assay; type: cell-based
Method: By way of example, human cervical cancer cell line HeLa was used to determine the radiosensitizing activity of 2-bromo-isovanillin.
Specifically, human cervical cancer cells HeLa were divided into six groups, diluted as appropriate, and plated into Petri dishes with a diameter of […]. The amount of cells plated in each Petri dish was 300/500 for 0 Gy group (without Co-60 γ radiation), or 400/800 for 2 Gy group. Once adherence was achieved, three groups were treated with 20 μmol/L 2-bromo-isovanillin (BVAN3208) for 0, 4 and 18 hrs, respectively and then irradiated with Co-60 γ ray at 2 Gy, followed by two weeks under conventional culturing conditions. As to the other three groups, one group was treated with 20 μmol/L 2-bromo-isovanillin (BVAN3208) for 72 hrs and then cultured for two weeks under conventional conditions, one group received irradiation with Co-60 γ ray at 2 Gy and then was cultured for two weeks under conventional conditions, and the remaining group as control received no treatment at all and was cultured for two weeks under conventional conditions. 48 hrs after irradiation with Co-60 γ ray, using MTT assay, the optical density (OD) values at 490 nm were measured and recorded, wherein the magnitude of OD value is indicative of cell number, i.e., cell proliferation. The results are shown in FIG. 5, wherein C represents the control group, R(2 Gy) represents the group treated with Co-60 γ ray alone, BVAN3208 represents the group treated with 20 μmol/L 2-bromo-isovanillin alone, and BVAN3208/0 h R, BVAN3208/4 h R and BVAN3208/18 h R respectively represent the groups treated with 20 μmol/L 2-bromo-isovanillin for 0, 4, 18 hrs before irradiation with Co-60 γ ray. The survival rates of the cancer cells treated with 2 Gy Co-60 γ ray radiation or 20 μmol/L 2-bromo-isovanillin for 72 hrs were 76% and 70%, respectively.

[4] = system: leukemia cell line Jurkat; test: Apoptosis in Jurkat cells (Hoechst 33258/FDA staining, DNA gel electrophoresis, flow cytometry); type: cell-based, human
Method: Human cervical cancer cell line HeLa, human liver cancer cell line HepG2/7221/7402, human ovarian cancer cell line HOC8/A2780, human glioma cell line BT325, lung cancer cell line A549, brain metastatic lung cancer cell line BT72 and normal human hepatic cell line LO2 were all grown in DMEM liquid medium supplemented with 10% newborn calf serum. Human leukemia cell line Jurkat was grown in 1640 medium supplemented with 10% newborn calf serum. The above cell lines were cultured in a CO2 incubator at 5% CO2 at 37° C.
3. Using the same procedure as described under items 1 and 2, the leukemia cells Jurkat were diluted, and plated into Petri dishes with a diameter of […], the amount of the cells adjusted depending on the concentration of 2-bromo-isovanillin to be added. Once adherence was achieved, the cells received dosages of 0, 10, 20, 30 and 40 μmol/L in triplicates. After 24 hrs of continuous action, the medium was replaced by a drug-free 1640 medium supplemented with 10% newborn calf serum. The cells were cultured for a total of 2 weeks. At the end of the culturing period, the cells were subjected to Hoechst 33258 and FDA double fluorescence staining and the results were plotted as an apoptosis curve, as shown in FIG. 4A.

[5] = system: normal human hepatic cell line LO2; test: Cell cycle profile and apoptosis by flow cytometry, LO2; type: cell-based; settings: LO2, 40 μmol/L, 24 hrs
Method: By way of example, human liver cancer cell line HepG2 and normal human hepatic cell line LO2 were used to study the inhibitory effect of 2-bromo-isovanillin on the growth of liver cancer cells and normal cells by clonogenic assay. Specifically, five groups were formed according to the drug concentration, and the liver cancer cells HepG2 and normal hepatic cells LO2 were respectively treated with 5, 10, 20, 40 and 80 μmol/L 2-bromo-isovanillin for 24 hrs. Then cell survival was measured by clonogenic assay (FIG. 8). In addition, the cell cycle profile and apoptotic effect were compared using flow cytometry.

In the case of `COc1ccc(C=O)c(Br)c1O` [2-bromo-isovanillin, 2-bromo-3-hydroxy-4-methoxybenzaldehyde], the “treatment time after which obvious G2/M arrest began to appear” value [1] is reported as 4 h, the “treatment time of peak G2/M arrest” value [1] is reported as 8 to 16 h and the cell cycle effect ([1]; 24 hrs) is reported as “arrested at G2/M phase”. The cell apoptosis ([1]; after 8 hrs of treatment) was “significantly increased”, the “cells at G0/G1 phase” value ([1]; at the time of G2/M arrest) was “significantly decreased” and the “effect on DNA-PKcs kinase activity” value ([2]; HepG2, 20 μmol/L) was “significantly inhibited”. For the same molecule, the “inhibitory effect on DNA-PKcs kinase activity” value ([2]; HepG2, 40-100 μmol/L, compared with 20 μmol/L) was “more remarkable”, the survival rate ([3]; 20 μmol/L for 72 hrs alone, no radiation) was 70% and the cell survival rate ([3]; 20 μmol/L, 2 Gy radiation 4 hrs after administration) was “about 51%”. The cell survival rate ([3]; 20 μmol/L, 2 Gy radiation 18 hrs after administration) was ~21%, the cell survival rate ([3]; 20 μmol/L, 2 Gy radiation immediately (0 h) after administration) was “about 51%” and the sensitization ratio ([3]; 20 μmol/L, pretreatment 18 hrs prior to 2 Gy radiation) was 3.32. The “apoptosis in Jurkat (flow cytometry)” value ([4]; 0, 20, 30 μmol/L, 24 hrs) was “significantly induced apoptosis”, the “DNA gel electrophoresis finding” value ([4]; Jurkat, 20, 30, 40 μmol/L, 2% agarose gel) was “DNA fragmentation bands characteristic of apoptosis” and the “dose inducing necrosis or M phase catastrophic death” value ([4]; Jurkat, 24 hrs, Hoechst 33258 and FDA double fluorescence staining) was ≥ 40 µmol/L. For the same molecule, the “G2/M arrest and apoptosis in normal hepatic cells” value [5] was “did not result in G2/M arrest or significant cell apoptosis”.
